Key:
[1] = Partition coefficient (logP); type: physicochemical; conditions: octanol/water
[2] = tested on: Salmonella typhimurium; assay: Ames test averaged in revertants/plate with Salmonella Typhimurium TA98 at 0.50 mg/plate; type: functional, Salmonella enterica subsp. enterica serovar Typhimurium
[3] = tested on: Salmonella typhimurium; assay: Ames test averaged in revertants/plate with Salmonella Typhimurium TA1538 at 1.0 mg/plate; type: functional, Salmonella enterica subsp. enterica serovar Typhimurium
[4] = tested on: Salmonella typhimurium; assay: Ames test averaged in revertants/plate with Salmonella Typhimurium TA1538 at 0.25 mg/plate; type: functional, Salmonella enterica subsp. enterica serovar Typhimurium
[5] = tested on: Salmonella typhimurium; assay: Ames test averaged in revertants/plate with Salmonella Typhimurium TA98 at 1.0 mg/plate; type: functional, Salmonella enterica subsp. enterica serovar Typhimurium
[6] = tested on: Salmonella typhimurium; assay: Ames test averaged in revertants/plate with Salmonella Typhimurium TA1538 at 0.13 mg/plate; type: functional, Salmonella enterica subsp. enterica serovar Typhimurium
[7] = tested on: Salmonella typhimurium; assay: Ames test averaged in revertants/plate with Salmonella Typhimurium TA98 at 0.13 mg/plate; type: functional, Salmonella enterica subsp. enterica serovar Typhimurium
[8] = tested on: Salmonella typhimurium; assay: Ames test averaged in revertants/plate with Salmonella Typhimurium TA1538 at 0.50 mg/plate; type: functional, Salmonella enterica subsp. enterica serovar Typhimurium
[9] = tested on: Salmonella typhimurium; assay: Ames test averaged in revertants/plate with Salmonella Typhimurium TA98 at 0.25 mg/plate; type: functional, Salmonella enterica subsp. enterica serovar Typhimurium
[10] = tested on: Salmonella typhimurium; assay: Ames test averaged in reverts/plate with Salmonella Typhimurium TA1538 at 0.13 mg/plate; type: functional, Salmonella enterica subsp. enterica serovar Typhimurium
[11] = tested on: Salmonella typhimurium; assay: Ames test averaged in revertants/plate with Salmonella Typhimurium TA1538 at 5 mg/plate; type: functional, Salmonella enterica subsp. enterica serovar Typhimurium
[12] = tested on: Salmonella typhimurium; assay: Ames test averaged in revertants/plate with Salmonella Typhimurium TA98 at 0.1 mg/plate; type: functional, Salmonella enterica subsp. enterica serovar Typhimurium
[13] = tested on: Salmonella typhimurium; assay: Ames test averaged in revertants/plate with Salmonella Typhimurium TA98 at 5 mg/plate; type: functional, Salmonella enterica subsp. enterica serovar Typhimurium
[14] = tested on: Salmonella typhimurium; assay: Ames test averaged in revertants/plate with Salmonella Typhimurium TA98 at 2.5 mg/plate; type: functional, Salmonella enterica subsp. enterica serovar Typhimurium
[15] = tested on: Salmonella typhimurium; assay: Ames test averaged in revertants/plate with Salmonella Typhimurium TA1538 at 0.5 mg/plate; type: functional, Salmonella enterica subsp. enterica serovar Typhimurium
[16] = tested on: Salmonella typhimurium; assay: Ames test averaged in revertants/plate with Salmonella Typhimurium TA1538 at 2.5 mg/plate; type: functional, Salmonella enterica subsp. enterica serovar Typhimurium
[17] = tested on: Salmonella typhimurium; assay: Ames test averaged in revertants/plate with Salmonella Typhimurium TA98 at 0.5 mg/plate; type: functional, Salmonella enterica subsp. enterica serovar Typhimurium
[18] = tested on: Salmonella typhimurium; assay: Ames test averaged in revertants/plate with Salmonella Typhimurium TA1538 at 0.1 mg/plate; type: functional, Salmonella enterica subsp. enterica serovar Typhimurium

Row | Compound | logP [1] | Revertants/plate [2] | Revertants/plate [3] | Revertants/plate [4] | Revertants/plate [5] | Revertants/plate [6] | Revertants/plate [7] | Revertants/plate [8] | Revertants/plate [9] | Revertants/plate [10] | Revertants/plate [11] | Revertants/plate [12] | Revertants/plate [13] | Revertants/plate [14] | Revertants/plate [15] | Revertants/plate [16] | Revertants/plate [17] | Revertants/plate [18]
1 | CC(=O)Nc1ccc2c(c1)S(=O)(=O)c1ccc(C)cc1C2=O | 2.76 | 0 | 5 | 2 | 8 | 0 | 1 | 0 | 0 | – | – | – | – | – | – | – | – | –
2 | CCc1ccc2c(c1)C(=O)c1ccc(NC(C)=O)cc1S2(=O)=O | 3.44 | 0 | 2 | 0 | 0 | 1 | 0 | 1 | 0 | – | – | – | – | – | – | – | – | –
3 | CCCc1ccc2c(c1)C(=O)c1ccc(NC(C)=O)cc1S2(=O)=O | 3.51 | 0 | 0 | 0 | 0 | 0 | 0 | 0 | 0 | – | – | – | – | – | – | – | – | –
4 | CC(=O)Nc1ccc2c(c1)S(=O)(=O)c1ccccc1-2 | – | 2 | 2 | 0 | 4 | – | 0 | 2 | 0 | 0 | – | – | – | – | – | – | – | –
5 | CC(=O)Nc1ccc2c(c1)[nH]c1ccccc12 | 3.02 | 468 | 775 | 762 | 456 | 679 | 725 | 699 | 732 | – | – | – | – | – | – | – | – | –
6 | CC(=O)Nc1ccc2c(c1)S(=O)(=O)c1ccccc1C2=O | 2.35 | – | – | – | – | – | – | – | – | – | 0 | 0 | 0 | 0 | 0 | 0 | 0 | 0
